# According to patent publication US20050055748A1, “Stress-responsive genes, regulatory elements, and methods of use for same” (priority 2003, published 2005):
# Entries after “also recorded” stand apart in the source; their conditions may differ.
# Tests used:
# Assay type in all cases: cell-based, Zea mays
# Hi-II maize cells = test: Growth of Hi-II maize callus cells on media containing sucrose and raffinose, with or without dehydration stress; conditions: for Relative weight gain, Dehydration stressed: dried in a flowhood for 4 h; for Relative weight gain, Dehydration stressed / Relative weight gain, Control: increase in weight relative to initial weight, means of three replicates; for Relative weight gain, Control: no dehydration stress
# Method: Table 1. Growth of Hi-II maize cells in culture on media containing sucrose and raffinose. Hi-II cells were weighed, cultured on different media for 4 d, transferred to N6 medium, cultured for another 7 d, and re-weighed. For dehydration stress, Hi-II cells were weighed, cultured on different media for […] , dried in a flowhood for 4 h, subsampled for water content, returned to the initial media for 1 d, transferred to N6 medium, cultured for 7 days, and re-weighed. Growth rates (increase in weight relative to initial weight) and water contents (dry weight basis) are the means of three replicates. Analysis of variance and mean separations were calculated among media within a dehydration stress treatment.
# (§1) Maize Hi-II callus cultures were initiated according to Armstrong and Green (1985) from immature embryos isolated from Hi-II maize plants provided by Pioneer. Cultures were incubated in the dark at 25° C. on solid N6 medium containing 2% (w/v) sucrose (Chu et al., 1975) amended with 2 mg/L 2,4-dichlorophenoxyacetic acid, 25 mmol/L L-proline, and 10 μmol/L AgNO3, pH 5.8 (N6S2 medium) and sub-cultured every two weeks onto fresh media. For experimental treatments, approximately 2 g of cells (fresh weight) were added to each 100×15 mm plate. To determine the effect of various sugars and environmental stresses on the expression of ZmGOLS and ZmRAFS genes in maize Hi-II callus cells, callus was cultured on N6 media supplemented with different concentrations of sugars and: a) grown at 25° C. in the dark (control conditions); b) exposed to 42° C. for 24 h (heated); c) exposed to 4° C. for 24 h (chilled); or d) exposed to a current of air at 25° C. in a laminar flow hood for 4 h (dehydrated). To determine the responsiveness of ZmGOLS and ZmRAFS genes to exogenous ABA, calli were grown on media with 1, 10, and 100 μM cis, trans-ABA (Sigma) under control conditions for 1 d prior to harvest and RNA extraction.
# Samples of Hi-II cells growing on N6S2 were weighed and placed on N6S2, N6S5, or N6S5 supplemented with 0.1% w/v raffinose. Callus was grown for 4 d at 25° C. on these various media. The callus on a particular medium was separated into two equal sub-samples and the fresh weight obtained. A sub-sample of half of the callus cells per plate for each medium was subjected to dehydration stress by removal from the medium and exposure to a current of air in a flow hood for 4 h. The remaining half of the callus cells were not exposed to stress. After 4 h dehydration stress the callus was placed back on its respective medium for an additional 22 h. Previously stressed and non-stressed calli were then transferred to N6S2 for one week. At the end of the week the calli were weighed again to determine how much growth had occurred during the week. The growth of the cells was expressed as the increase in fresh weight after one week of growth on N6S2 relative to the callus fresh weight 7 days earlier (Dennehey et al.; 1994). This experiment was repeated 3 times.
# ZmGOLS2 = ZmGOLS2 gene expression in maize Hi-II callus (northern blot, RPA); conditions: for ZmGOLS2 mRNA in stressed callus (FIG. 7A): 2% sucrose plus 0.01% myo-inositol or 7.8% mannitol, dehydration 4 h or heat 42° C. 24 h
# Method: as §1
# (§2) Sucrose and raffinose amounts in N6 media were altered, singly for sucrose or in combination with raffinose, to determine if RAFS substrates or the final product of the coordinate action of GOLS and RAFS influenced ZmGOLS and ZmRAFS gene expression. Because it is not known whether sucrose or raffinose are taken up into Hi-II cells directly or if they are hydrolyzed prior to uptake, glucose, fructose, galactose, and melibiose were also supplied. Myo-inositol (1,2,3,5-trans-4,6-hexahydroxy cyclohexane, Sigma), a GOLS substrate, was added to N6S2 media at amounts from 0.01-1% w/v. To determine if gene expression was regulated by osmotic stress, N6S2 media was amended with 0.1% to 7.8% w/v mannitol. Callus cells were also grown on N6 with combinations of sugars and the myo-inositol isomer, scyllo-inositol. All chemicals were sterilized by filtration and added to autoclaved media cooled to 65° C. just prior to pouring the plates. Hi-II callus cells on these various media were maintained under control conditions or subjected to stress (see above) prior to being harvested for sugar or RNA extraction or moisture content analysis. Cells were transferred to amended N6 media for 8 days, the environmental stress (if any) applied, and the cells harvested.
# (§3) Total RNA from seeds, regardless of treatment, was extracted according to Wan and Wilkins (1994). Total RNA (20 μg per lane) from seeds was transferred onto positively charged nylon membranes (Amersham Life Science Inc., Arlington Heights, Ill., USA) in 10×SSC (1×SSC is 150 mM NaCl and 15 mM Na citrate pH 7) overnight, the blot dried and UV cross-linked at 50 mJoules on a GS genelinker UV chamber (Bio-Rad Laboratories, Hercules, Calif., USA). After rinsing the membranes for 5 min in 2×SSC, blots were placed in pre-hybridization solution (50% formamide, 5× Denhardt's solution (Denhardt 1966), 100 μg ml^−1 boiled, sheared salmon sperm DNA, 0.2% SDS, 6×SSC pH 7.0, Sambrook et al. 1989) for 4-6 h at 42° C. Randomly labeled, radioactive cDNA probes ([^32P] dCTP) were hybridized to the blots for at least 12 h at the same temperature as pre-hybridization. The primary wash was done in 2×SSC, 0.1% SDS, RT for 5 min, and repeated but at 65° C. for 30 min. The two final high stringency washes were in 0.2×SSC, 0.1% SDS at 65° C. for 30 min each. The hybridized probe was detected by autoradiography using Kodak X-OMAT X-ray film (Eastman-Kodak Ltd.) or on a phosphoimaging screen using a Phosphorlmager (Molecular Dynamics).
# The high degree of sequence homology among ZmGOLS genes prompted verification of results from northern blot analysis using RPAs (RPA III, Ambion, Little Rock, Tex., USA). […]
# ZmRAFS1 = ZmRAFS1 gene expression in maize Hi-II callus (northern blot); conditions: for ZmRAFS1 expression, effect of raffinose or galactose: 4% sucrose plus raffinose (0.01-1%) or 0.33% galactose, 42° C. for 1 d (FIG. 8C); for ZmRAFS1 mRNA accumulation with myo-inositol or mannitol in the media (FIG. 8A): 2% sucrose plus 0.01% myo-inositol or 7.8% mannitol, control, dehydrated, 4 or 42° C.
# Method: as §1, §2, §3
# [1] = unstressed cells on N6+2% (w/v) sucrose, 1, 10, 100 μM ABA, 1 d
structure (smiles),measurement,setting,value
"OC[C@H]1O[C@@](CO)(O[C@H]2O[C@H](CO)[C@@H](O)[C@H](O)[C@H]2O)[C@@H](O)[C@@H]1O [2% sucrose, sucrose]","Relative weight gain, Dehydration stressed",Hi-II maize cells,1.35 ± 0.16 b
same,"Relative weight gain, Control",Hi-II maize cells,1.89 ± 0.17 a
"OC[C@H]1O[C@@](CO)(O[C@H]2O[C@H](CO)[C@@H](O)[C@H](O)[C@H]2O)[C@@H](O)[C@@H]1O [5% sucrose, sucrose]","Relative weight gain, Dehydration stressed",Hi-II maize cells,1.37 ± 0.02 b
same,"Relative weight gain, Control",Hi-II maize cells,1.45 ± 0.04 b
"CC1=CC(=O)CC(C)(C)[C@@]1(O)/C=C/C(C)=C\C(=O)O [ABA, abscisic acid]",ZmGOLS2 gene expression in response to applied ABA,ZmGOLS2; [1],not responsive to ABA
same,ZmRAFS1 gene expression in response to applied ABA,ZmRAFS1; [1],not induced beyond that of 2% sucrose alone
O=C[C@H](O)[C@@H](O)[C@@H](O)[C@H](O)CO [galactose],"ZmRAFS1 expression, effect of raffinose or galactose",ZmRAFS1,as effective as raffinose at repressing ZmRAFS1 expression at equal galactose molarities
OC[C@@H](O)[C@@H](O)[C@H](O)[C@H](O)CO [mannitol],ZmGOLS2 mRNA in stressed callus (FIG. 7A),ZmGOLS2,upregulated ZmGOLS2 gene expression when subjected to dehydration but not to heat stress
same,"ZmGOLS2 transcription, low mannitol","ZmGOLS2; dehydrated cells, 0.1-0.5% w/v",repressed ZmGOLS2 transcription below that present in cells grown on 2% sucrose alone
same,"ZmGOLS2 transcription, very high mannitol","ZmGOLS2; dehydrated cells, 7.8% w/v",upregulated ZmGOLS2 transcription
same,ZmRAFS1 mRNA accumulation with myo-inositol or mannitol in the media (FIG. 8A),ZmRAFS1,did not influence ZmRAFS1 gene expression
"O[C@H]1[C@H](O)[C@@H](O)[C@H](O)[C@@H](O)[C@H]1O [myo-inositol, 1,2,3,5-trans-4,6-hexahydroxy cyclohexane]",ZmGOLS2 mRNA in stressed callus (FIG. 7A),ZmGOLS2,ZmGOLS2 mRNA accumulation
same,"ZmGOLS2 transcription, low myo-inositol","ZmGOLS2; dehydrated cells, 2% sucrose, 0.01-0.1% w/v",upregulated ZmGOLS2 transcription
same,"ZmGOLS2 transcription, high myo-inositol","ZmGOLS2; dehydrated cells, 2% sucrose, 1% w/v",repressed ZmGOLS2 transcription below that on 2% sucrose alone
same,ZmRAFS1 mRNA accumulation with myo-inositol or mannitol in the media (FIG. 8A),ZmRAFS1,did not elicit greater ZmRAFS1 mRNA accumulation with the exception of cells exposed to heat shock
OC[C@H]1O[C@H](OC[C@H]2O[C@H](O[C@]3(CO)O[C@H](CO)[C@@H](O)[C@@H]3O)[C@H](O)[C@@H](O)[C@@H]2O)[C@H](O)[C@@H](O)[C@H]1O [raffinose],callus mass accumulation,"Hi-II maize cells; 0.1% raffinose in medium with 5% sucrose, unstressed",prevented the detrimental effect of high sucrose on callus mass accumulation
same,callus growth following dehydration stress,"Hi-II maize cells; 0.1% w/v raffinose with 5% sucrose, 4 h dehydration",grew as well as callus that had not been subjected to dehydration; also recorded: capable of alleviating dehydration-induced damage
same,"ZmRAFS1 expression, effect of raffinose or galactose",ZmRAFS1,may inhibit the expression of ZmRAFS1 upon attaining a sufficient concentration
O[C@H]1[C@H](O)[C@@H](O)[C@H](O)[C@@H](O)[C@@H]1O [scyllo-inositol],"ZmGOLS2 expression, low scyllo-inositol with high mannitol","ZmGOLS2; dehydrated cells, 2% sucrose (FIG. 7C)",did not alter the expression of ZmGOLS2 relative to similar concentrations of myo-inositol and mannitol
OC[C@H]1O[C@@](CO)(O[C@H]2O[C@H](CO)[C@@H](O)[C@H](O)[C@H]2O)[C@@H](O)[C@@H]1O [sucrose],"ZmRAFS1 gene expression, effect of sucrose and its monosaccharides","ZmRAFS1; heat-stressed callus, 2% (w/v) or greater sucrose (FIG. 8B, 8C)",up-regulated by sucrose
